Measured values: patent publication US20240099951A1, “HAIR GROWTH STIMULANT” (ADJUVANT HOLDINGS CO., LTD., priority 2020, published 2024)

System: BALB/c-nu/nu mice
Test: Evaluation of mitogenic activity (BrdU immunostaining of skin tissue)
Type: in vivo
Conditions: once per day for 7 days
Experimental: Dorsal body hair skin was collected from BALB/c-nu/nu mice (Japan SLC, Inc.; Japan) of age 7 to 8 weeks. Testing and breeding of animals complied with pertinent laws, regulations, ordinances, and guidelines, and was performed with the approval of the Experimental Ethics Review Board of the Institute of Physical and Chemical Research. The following drugs were respectively prepared. • Working Example: 3% phytosphingosine solution • Comparative Example: 60% aqueous ethanol solution A micropipette was used to apply 25 μL of the drug to the left and right dorsal regions of the BALB/c-nu/nu mice. A dryer was thereafter used to cause cool air to be directed at the location where this was applied and rapidly dry the drug. This procedure was carried out in repetitive fashion four times at each the left and right dorsal regions. This drug application procedure was carried out for seven days starting from the day following depilation. 24 hours and 48 hours prior to collection of dorsal body hair skin from BALB/c-nu/nu mice on which the drug had been applied for 7 days, a syringe (Terumo Corporation; Japan) was used to administer 0.5 mL of 10 mg/mL BrdU/physiological saline solution to the abdomen in the region of the hind legs of each mouse. Following euthanization by cervical dislocation of the BALB/c-nu/nu mice on the eighth day at the same time as when administration had been carried out, skin tissue was collected in a manner such as would not cause damage to the hair bulb. The collected skin tissue was immersed for 16 to 24 hours in SuperFix (Toyobo Co., Ltd.; Japan) fixative solution, following which this was washed four times in 1×PBS, placed in fresh 1X PBS, and stored. The necessary portion of the collected skin tissue was cut out therefrom, and a paraffin fluid exchange apparatus (Leica Microsystems GmbH; Germany) was used to fabricate a paraffin block therefrom. […] BrdU counts were measured at three locations of 100 μm^2 for the epidermal layer and the dermal layer, measurement being carried out at three sites of size on the same order for the hair follicle. […]

SMILES: CCCCCCCCCCCCCC[C@@H](O)[C@@H](O)[C@@H](N)CO [phytosphingosine]
- mitogenic activity (BrdU counts) as compared with the negative control and the positive control (3% phytosphingosine solution): trend toward increased mitogenic activity
- mitogenic activity at the basal layer of the epidermis (3% phytosphingosine solution): increase in mitogenic activity
- mitogenic activity at the hair follicle (3% phytosphingosine): improved
